In patent US11999737B2, “Kinase inhibitors and related methods of use” (Duke University, priority 2014, dated 2024):

Legend:
intact mouse aorta = test: Phenylephrine-induced contractile force of intact mouse aorta (myograph)
Experimental: (§1) A, Typical myograph force trace showing the effect of HS38 on intact mouse aorta contractility. The maximum contractile force of PE-induced contraction was reduced by approximately 30% when HS38 (10 μM) was added five minutes prior to PE addition and by approximately 40% when added ten minutes after PE addition. B, Serum-starved aortic SM cells were treated with SIP (0.25 μM) and HS-38 (±50 μM) for 30 min.
Tissue Preparation and Force Measurements. All protocols and procedures for tissue harvest were carried out according to protocols approved by the Animal Care and Use Committees at the University of Virginia and Duke University, Helical strips of mouse aorta or strips of rabbit ileum were dissected, (˜400 μm wide, 2 mm long) and mounted between two tungsten hooks on a bubble plate for force measurements (Horiuti (1988) J. Physiol.-London 398, 131-148). […] Intact strips of mouse abdominal aorta were challenged with phenylephrine following pretreatment with HS38 or diluent, DMSO or HS38 and DMSO were added after maximal phenylephrine-induced force was achieved and force output measured. […] For Ca^2+ activating solutions, EGTA (10 mM) and a calculated amount of Ca-methanesulfonate was added to give the desired free Ca^2+ concentration ((Horiuti (1988) J. Physiol.-London 398, 131-148).

RLC20 phosphorylation = RLC20 phosphorylation in serum-starved aortic smooth muscle cells; format: cell-based, mouse; conditions: 30 min
Experimental: as §1
For Western blots, tissues and cultured cells were lysed in 1% SDS, NaCl (300 mM), Tris-HCl (50 mM, pH 7.5), subjected to SDS-PAGE, transferred to polyvinylidene difluoride membrane (Millipore) and visualized using the Odyssey System (Li-Cor). For Odyssey imaging, the membranes were blocked with Odyssey Blocking Buffer and then subjected to anti-MYPT1 (1:2,000) (BD Transduction), phospho-MYPT1 (Thr696) (1:1,000) (Millipore), RLC20 (1:2000) (Sigma) and phospho-RLC20 (1:1000) (Cell Signaling Technology) antibodies. Antibodies were diluted in appropriate blocking buffer. The membranes were washed in TBS with 0.05% Tween 20. Primary antibodies were visualized using secondary antibodies conjugated to Alexa 680 (Invitrogen) or IRDye800 (Li-Cor).
Cell Culture: Mouse aortic SM cells were prepared. The cell line was cultured in AmnioMax medium (Gibco) supplemented with 10% embryonic stem cell-qualified fetal bovine serum (Invitrogen) and penicillin-streptomycin (Invitrogen). […]

[1] = tested on: posterior cerebral arteries of spontaneous hypertensive rat (SHR); test: Pressure myography of posterior cerebral arteries of SHR, enhanced myogenic tone; conditions: HS-38 10 μM, 10-wk SHR
From the text: Data are means (n=2 animals) for size-matched vessels from 10-wk SHR rats. The average maximum passive diameters at 120 mmHg were 280 μm. Representative pressure-induced changes in arteriolar diameter (A) as well as mean diameter-pressure relationships (B) and active myogenic constriction (C) are shown.
Posterior cerebral arteries (PCAs) from male Sprague-Dawley rats were isolated and mounted/cannulated for pressure myography. Briefly, 2-3 mm arterial segments are mounted across glass canuli in an arteriograph chamber attached to a pressure myograph (Living Systems, Burlington, Vt. USA) and tied in place using silk suture. Endothelial cells are removed by passing a stream of air bubbles through the vessel lumen (this methodology was confirmed by loss of dilatory response to acetylcholine). […] After this, arteriole myogenic responses (i.e., vessel diameter) to increasing luminal pressure were monitored ex vivo in the absence or presence of HS-38. […] This series of steps is repeated in normal Krebs buffer, with the addition of ZIPK inhibitor (i.e., 10 μM HS-38) and finally in Ca^2+ free Krebs (same constitution as normal Krebs with no CaCl2 and added EGTA (2 mM), Data are collected as average vessel diameter over stable region of each step and expressed as a percentage of the maximal passive vessel diameter (120 mmHg, 0Ca^2+) to standardize for variation in size of […]. […]

[2] = tested on: isolated PCA vessels (posterior cerebral artery of the rat); test: Dilation of isolated PCA vessels previously constricted with 5HT
From the text: FIG. 47 is a graph of HS-38 concentration versus percent dilation of isolated PCA vessels (posterior cerebral artery of the rat) previously constricted with 5HT.
ZIPK expression differences within different vascular beds may provide distinct pharmacology.

CC(Sc1nc2c(cnn2-c2cccc(Cl)c2)c(=O)[nH]1)C(N)=O (stereo not drawn) [HS38]
reduction of maximum contractile force of PE-induced contraction (intact mouse aorta; HS38 10 μM added five minutes prior to PE addition): approximately 30% | reduction of maximum contractile force of PE-induced contraction (intact mouse aorta; HS38 10 μM added ten minutes after PE addition): approximately 40% | RLC20 phosphorylation, basal (unstimulated) state (RLC20 phosphorylation; 50 μM, p <0.0002, n=8): significantly decreased | RLC20 phosphorylation, S1P stimulated state (RLC20 phosphorylation; S1P 0.25 μM, HS38 50 μM, p <0.004, n=8): significantly decreased | enhanced myogenic tone at low basal luminal pressures [1]: can be attenuated | dilation of vessels previously constricted with 5HT [2]: induced dilation
